Test results: PubChem BioAssay AID210 (DTP/NCI, 2004)
Where “and” joins values, the source holds several entries; their conditions need not be identical. Identical values can stand only once. Toxic doses and inconclusive results are not listed.

Test system: CD2F1 mice, ip Colon 26 adenocarcinoma, median survival T/C
Assay: NCI In Vivo Anticancer Drug Screen. Data for tumor model Colon 26 Adenocarcinoma (intraperitoneal) in CD2F1 (CDF1) mice
Conditions: endpoint: median survival time, higher = longer survival
Method: The antitumor activity of compounds was measured in mice bearing transplantable tumors. Survival or tumor size were measured and the results are expressed as the measurement made in the treated group (T) divided by the measurement made in the vehicle treated control group (C). The tumor model used in this assay is Colon 26 Adenocarcinoma (intraperitoneal) in CD2F1 (CDF1) mice

[1] = dose: 12.5 mg/kg/injection, schedule: Q04DX003 (ip), vehicle: saline with Tween-80
[2] = dose: 25.0 mg/kg/injection, schedule: Q04DX003 (ip), vehicle: saline with Tween-80
[3] = dose: 50.0 mg/kg/injection, schedule: Q04DX003 (ip), vehicle: saline with Tween-80
[4] = dose: 100.0 mg/kg/injection, schedule: Q04DX003 (ip), vehicle: saline with Tween-80
[5] = dose: 200.0 mg/kg/injection, schedule: Q04DX003 (ip), vehicle: saline with Tween-80
[6] = dose: 400.0 mg/kg/injection, schedule: Q04DX003 (ip), vehicle: saline with Tween-80

SMILES: CCOC(C)C(/C=N/NC(N)=S)=NNC(N)=S (stereo unspecified)
- T/C [1]: 98 % of control
- T/C (dose: 12.5 mg/kg/injection, schedule: Q04DX003 (ip), vehicle: saline): 104 % of control
- T/C [2]: 98 % of control
- T/C (dose: 25.0 mg/kg/injection, schedule: Q04DX003 (ip), vehicle: saline): 93 % of control
- T/C [3]: 100 % of control
- T/C (dose: 50.0 mg/kg/injection, schedule: Q04DX003 (ip), vehicle: saline): 113 % of control
- T/C [4]: 99 % of control
- T/C [5]: 97 % of control
- T/C [6]: 97 % of control

SMILES: CC(C)CCCCCCCCCCCCC(=O)NCC(=O)NC1C(O)C(O)C(Nc2ncnc3nc[nH]c23)OC1C(O)CO (stereo unspecified)
- T/C (dose: 0.5 mg/kg/injection, schedule: Q04DX003 (ip), vehicle: Klucel (hydroxypropylcellulose) (HPC)): 91 % of control
- T/C (dose: 1.0 mg/kg/injection, schedule: Q04DX003 (ip), vehicle: Klucel (hydroxypropylcellulose) (HPC)): 97 % of control
- T/C (dose: 2.0 mg/kg/injection, schedule: Q04DX003 (ip), vehicle: Klucel (hydroxypropylcellulose) (HPC)): 101 % of control
- T/C (dose: 4.0 mg/kg/injection, schedule: Q04DX003 (ip), vehicle: Klucel (hydroxypropylcellulose) (HPC)): 103 % of control

SMILES: O=Cc1ccc(C(Cl)(Cl)Cl)cc1
- T/C [1]: 103 % of control and 107 % of control
- T/C [2]: 106 % of control and 109 % of control
- T/C [3]: 114 % of control and 98 % of control
- T/C [4]: 96 % of control
- T/C [5]: 98 % of control
- T/C [6]: 103 % of control

SMILES: Nc1nc2c(ncn2C2OC(CO)C(O)C2N)c(=O)[nH]1 (stereo unspecified)
- T/C (dose: 3.0 mg/kg/injection, schedule: Q04DX002 (ip), vehicle: saline with Tween-80): 95 % of control
- T/C (dose: 6.0 mg/kg/injection, schedule: Q04DX002 (ip), vehicle: saline with Tween-80): 105 % of control
- T/C (dose: 12.0 mg/kg/injection, schedule: Q04DX002 (ip), vehicle: saline with Tween-80): 88 % of control
- T/C (dose: 24.0 mg/kg/injection, schedule: Q04DX002 (ip), vehicle: saline with Tween-80): 88 % of control
- T/C (dose: 48.0 mg/kg/injection, schedule: Q04DX002 (ip), vehicle: saline with Tween-80): 96 % of control
- T/C (dose: 96.0 mg/kg/injection, schedule: Q04DX002 (ip), vehicle: saline with Tween-80): 93 % of control

SMILES: C=C/C(C)=C/[C@H](C)C(=O)C[C@H](O)CC1CC(=O)NC(=O)C1
- T/C (dose: 6.25 mg/kg/injection, schedule: Q04DX003 (ip), vehicle: saline with Tween-80): 97 % of control
- T/C [1]: 100 % of control
- T/C [2]: 108 % of control
- T/C [3]: 109 % of control
- T/C [5]: 121 % of control

SMILES: CC1(CO)C(=O)CCC2(C)C1CCC1CC3CC12CCC3(O)CO (stereo unspecified)
- T/C (dose: 37.5 mg/kg/injection, schedule: Q04DX002 (ip), vehicle: distilled water + Tween-80): 97 % of control
- T/C (dose: 75.0 mg/kg/injection, schedule: Q04DX002 (ip), vehicle: distilled water + Tween-80): 101 % of control
- T/C (dose: 150.0 mg/kg/injection, schedule: Q04DX002 (ip), vehicle: distilled water + Tween-80): 94 % of control

SMILES: COc1cccc2c1C(=O)c1c(O)c3c(c(O)c1C2=O)C[C@@](O)(C(C)=O)C[C@@H]3OC1CC(N)C(O)C(C)O1 (stereo partly specified)
- T/C (dose: 1.8 mg/kg/injection, schedule: Q04DX003 (ip), vehicle: water): 114 % of control
- T/C (dose: 2.0 mg/kg/injection, schedule: Q04DX003 (ip), vehicle: saline): 158 % of control
- T/C (dose: 2.0 mg/kg/injection, schedule: Q07DX002 (iv), vehicle: saline): 113 % of control
- T/C (dose: 2.16 mg/kg/injection, schedule: Q04DX003 (ip), vehicle: water): 119 % of control
- T/C (dose: 3.4 mg/kg/injection, schedule: Q07DX002 (iv), vehicle: saline): 106 % of control
- T/C (dose: 3.6 mg/kg/injection, schedule: Q04DX003 (ip), vehicle: water): 103 % of control
- T/C (dose: 4.0 mg/kg/injection, schedule: Q04DX003 (ip), vehicle: saline): 115 % of control
- T/C (dose: 5.7 mg/kg/injection, schedule: Q07DX002 (iv), vehicle: saline): 104 % of control
- T/C (dose: 9.5 mg/kg/injection, schedule: Q07DX002 (iv), vehicle: saline): 115 % of control

SMILES: CCCCCCCCCCCCCCCCS(=O)CC(O)COC(=O)c1ccc(C(=O)OCC(O)CS(=O)CCCCCCCCCCCCCCCC)cc1 (stereo unspecified)
- T/C (dose: 12.5 mg/kg/injection, schedule: Q04DX002 (ip), vehicle: saline + alcohol): 109 % of control
- T/C (dose: 25.0 mg/kg/injection, schedule: Q04DX002 (ip), vehicle: saline + alcohol): 100 % of control
- T/C (dose: 50.0 mg/kg/injection, schedule: Q04DX002 (ip), vehicle: saline + alcohol): 91 % of control
- T/C (dose: 100.0 mg/kg/injection, schedule: Q04DX002 (ip), vehicle: saline + alcohol): 91 % of control

SMILES: Cc1c2ccncc2c(C)c2c1[nH]c1ccccc12
- T/C (dose: 12.5 mg/kg/injection, schedule: Q04DX002 (ip), vehicle: Klucel (hydroxypropylcellulose) (HPC)): 158 % of control
- T/C (dose: 12.5 mg/kg/injection, schedule: Q04DX002 (ip), vehicle: saline): 122 % of control
- T/C (dose: 12.5 mg/kg/injection, schedule: Q04DX003 (ip), vehicle: Klucel (hydroxypropylcellulose) (HPC)): 186 % of control
- T/C [1]: 112 % of control
- T/C (dose: 25.0 mg/kg/injection, schedule: Q04DX002 (ip), vehicle: saline): 156 % of control
- T/C (dose: 25.0 mg/kg/injection, schedule: Q04DX003 (ip), vehicle: Klucel (hydroxypropylcellulose) (HPC)): 263 % of control
- T/C [2]: 152 % of control
- T/C (dose: 50.0 mg/kg/injection, schedule: Q04DX002 (ip), vehicle: Klucel (hydroxypropylcellulose) (HPC)): 158 % of control
- T/C (dose: 50.0 mg/kg/injection, schedule: Q04DX003 (ip), vehicle: Klucel (hydroxypropylcellulose) (HPC)): 242 % of control
- T/C (dose: 100.0 mg/kg/injection, schedule: Q04DX002 (ip), vehicle: Klucel (hydroxypropylcellulose) (HPC)): 170 % of control
- T/C (dose: 100.0 mg/kg/injection, schedule: Q04DX002 (ip), vehicle: saline): 150 % of control
- T/C (dose: 100.0 mg/kg/injection, schedule: Q04DX003 (ip), vehicle: Klucel (hydroxypropylcellulose) (HPC)): 242 % of control
- T/C [4]: 165 % of control
- T/C (dose: 200.0 mg/kg/injection, schedule: Q04DX002 (ip), vehicle: saline): 156 % of control
- T/C [5]: 214 % of control

SMILES: Cc1ncc([N+](=O)[O-])n1CCSC(N)=O
- T/C [1]: 94 % of control
- T/C [2]: 124 % of control and 96 % of control
- T/C [3]: 89 % of control
- T/C [4]: 105 % of control and 95 % of control
- T/C [5]: 90 % of control and 94 % of control
- T/C [6]: 96 % of control

SMILES: CC(=O)OCC1(C)C(O)CCC2(C)C1CCC1CC3CC12CCC3(O)CO (stereo unspecified)
- T/C (dose: 12.5 mg/kg/injection, schedule: Q04DX002 (ip), vehicle: distilled water + Tween-80): 103 % of control
- T/C (dose: 25.0 mg/kg/injection, schedule: Q04DX002 (ip), vehicle: distilled water + Tween-80): 111 % of control
- T/C (dose: 50.0 mg/kg/injection, schedule: Q04DX002 (ip), vehicle: distilled water + Tween-80): 95 % of control
- T/C (dose: 100.0 mg/kg/injection, schedule: Q04DX002 (ip), vehicle: distilled water + Tween-80): 104 % of control

SMILES: NNC(=O)c1ccncc1
- T/C (dose: 72.0 mg/kg/injection, schedule: Q04DX002 (ip), vehicle: saline): 103 % of control
- T/C (dose: 144.0 mg/kg/injection, schedule: Q04DX002 (ip), vehicle: saline): 102 % of control

SMILES: CNCCNc1ccc(NCCNC)c2c1C(=O)c1ccccc1C2=O
- T/C (dose: 1.0 mg/kg/injection, schedule: Q01DX009 (ip), vehicle: acid diluted with saline): 154 % of control
- T/C (dose: 1.5 mg/kg/injection, schedule: Q01DX009 (ip), vehicle: acid diluted with saline): 205 % of control
- T/C (dose: 2.0 mg/kg/injection, schedule: Q01DX009 (ip), vehicle: acid diluted with saline): 219 % of control
- T/C (dose: 3.0 mg/kg/injection, schedule: Q01DX009 (ip), vehicle: acid diluted with saline): 236 % of control
- T/C (dose: 4.0 mg/kg/injection, schedule: Q01DX009 (ip), vehicle: acid diluted with saline): 215 % of control
- T/C (dose: 6.0 mg/kg/injection, schedule: Q01DX009 (ip), vehicle: acid diluted with saline): 226 % of control
- T/C (dose: 8.0 mg/kg/injection, schedule: Q01DX009 (ip), vehicle: acid diluted with saline): 225 % of control
- T/C (dose: 12.0 mg/kg/injection, schedule: Q01DX009 (ip), vehicle: acid diluted with saline): 236 % of control
- T/C (dose: 16.0 mg/kg/injection, schedule: Q01DX009 (ip), vehicle: acid diluted with saline): 115 % of control

SMILES: Nc1ncnc2nc[nH]c12
- T/C (dose: 64.0 mg/kg/injection, schedule: Q04DX002 (ip), vehicle: Klucel (hydroxypropylcellulose) (HPC)): 97 % of control
- T/C (dose: 128.0 mg/kg/injection, schedule: Q04DX002 (ip), vehicle: Klucel (hydroxypropylcellulose) (HPC)): 91 % of control
- T/C (dose: 256.0 mg/kg/injection, schedule: Q04DX002 (ip), vehicle: Klucel (hydroxypropylcellulose) (HPC)): 95 % of control
- T/C (dose: 512.0 mg/kg/injection, schedule: Q04DX002 (ip), vehicle: Klucel (hydroxypropylcellulose) (HPC)): 94 % of control
